According to article PMC10416055, “Structural basis of bidirectional allostery across the heme in a cytochrome P450 enzyme” (The Journal of Biological Chemistry, 2023):

Test system: CYP121

Row | SMILES | absorbance (Soret peak) of ligand-bound CYP121 [nm]
1 | Clc1ccccc1C(c1ccccc1)(c1ccccc1)n1ccnc1 [clotrimazole] | 424
2 | CC(=O)N1CCN(c2ccc(OCC3COC(Cn4ccnc4)(c4ccc(Cl)cc4Cl)O3)cc2)CC1 (centres unmarked) [ketoconazole] | 421
